Measured values reported in US20220265629A1, “TREATMENT OF SYSTOLIC DYSFUNCTION AND HEART FAILURE WITH REDUCED EJECTION FRACTION WITH THE COMPOUND (R)-4-(1-((3-(DIFLUOROMETHYL)-1-METHYL-1H-PYRAZOL-4-YL)SULFONYL)-1-FLUOROETHYL)-N-(ISOXAZOL-3-YL)PIPERIDINE-1-CARBOXAMIDE” (MyoKardia, Inc., priority 2019, published 2022).
Several values for one entry are separate records, joined by “and”; a condition that tells them apart may be missing. Equal entries are not always repeated.

Assay: HFrEF study Part 2 (MAD Cohorts A-D): plasma pharmacokinetics
Assay type: in vivo, human
Settings: for AUC_TAU: steady state
Description: This was a randomized, parallel-group, DB, placebo-controlled, adaptive design, sequential ascending (oral) multiple-close study in stable patients with heart failure. Four MAD Cohorts (A, B, C, D) were enrolled (FIG. 5B). An SRC reviewed results from each cohort and determined the close and confirmed initial sample size for the subsequent cohort. Additionally, the first 3 patients in each cohort had LVEF≥25%; the SRC reviewed preliminary safety data from these patients and decided whether to open cohort enrollment to patients with LVEF<25%.
After Screening and qualification, patients were confined to a clinical testing facility from Day 1 (Check-in) to Day 11. Each patient initially received placebo BID for 2 days (Days 1 and 2) in single-blinded manner (“run-in” during acclimatization to confinement in the Clinical Testing Unit) prior to receiving the randomized DB study drug treatment on Day 3. All patients then received either placebo or active Compound I for 7 days (Days 3 through 9), with a follow-up period with patients discharged from the unit on Day 11. A final follow-up clinic visit was conducted on Day 16. More than one patient could be closed in a cohort at the same time or during the same week depending on administrative issues, i.e., capacity and scheduling.
Patients were closed twice daily (every 12 hours). Doses could occur±2 hours from scheduled dosing times as long as closes were separated by at least 10 hours and by no more than 14 hours. The exception to the twice daily dosing was on Day 9 (last dose of randomized DB study drug treatment). On Day 9, a single morning close was administered.
During the study, multiple evaluations were performed that included: serial TTE assessments (11-14 TTEs per patient on Days 1, 2, 3, 4, 7, 9, 10 and 11); PK sampling (PK sample collected concomitantly with every post-randomization echocardiogram); ECGs (on Days 2, 3, 4, 7, 9, 10, 11 and 16); troponin (collected concomitantly with every post-randomization ECG); and safety laboratory assessments. Confined patients underwent continuous telemetry. Holter monitoring was performed in all patients at baseline (Days 1-2) and at the end of double-blind treatment (Days 7-9). Vital signs were collected daily.
Study medication consisted of Compound I 5 mg tablets, 25 mg tablets, 100 mg tablets, or matching placebo tablets. In Part 1 (SAD), Compound I or placebo was administered after an overnight fast (at least 6 hours), while in Part 2 (MAD), Compound I was administered after a 2 hour fast (Cohort A) or with food (Cohorts B, C, and D). The close was ingested with a minimum of 240 mL of water, but more water was ingested as needed. The entire close was administered over a period of up to 15 minutes. The time of close used to determine future assessments was the time the last tablet was taken. In the cohorts for Part 2 (MAD), a BID regimen was used.
In Part 2 (MAD), Cohort A patients fasted for 2 hours before and 2 hours after dosing. For example, if morning dosing occurred at 8 AM, patients could have a snack at 6 AM and a full breakfast at 10 AM. If afternoon dosing occurred at 8 PM, patients could have dinner at 6 PM and a snack at 10 PM. […] Cohort B, C, and D patients ingested food with each close.

[1] = Cohort A + C (n = 14), 75 mg BID
[2] = MAD Cohort A, 75 mg BID (4 h fasting), Mean
[3] = MAD Cohort A, 75 mg BID (4 h fasting), individual subjects
[4] = MAD Cohort B, 50 mg BID (with food), Mean
[5] = MAD Cohort B, 50 mg BID (with food), individual subjects
[6] = MAD Cohort C, 75 mg BID (with food), Mean
[7] = MAD Cohort C, 75 mg BID (with food), individual subjects

Cn1cc(S(=O)(=O)[C@@](C)(F)C2CCN(C(=O)Nc3ccon3)CC2)c(C(F)F)n1 [Compound I, (R)-4-(1-((3-(difluoromethyl)-1-methyl-1H-pyrazol-4-yl)sulfonyl)-1-fluoroethyl)-N-(isoxazol-3-yl)piperidine-1-carboxamide]
Post-dose maximum concentration, steady-state (Day 9) plasma [1]: 3862 (27.7%) ng/mL | Pre-dose concentration, steady-state (Day 9) plasma [1]: 2930 (36.8%) ng/mL | time to steady-state plasma concentrations (Cohort A, 75 mg twice daily, fasted): approximately 3 days | Post-dose maximum concentration, steady-state (Day 9) plasma (Cohort B (n = 8), 50 mg BID): 2735 (17.5%) ng/mL | Pre-dose concentration, steady-state (Day 9) plasma (Cohort B (n = 8), 50 mg BID): 2096 (20.0%) ng/mL | time to steady-state plasma concentrations (Cohort B, 50 mg twice daily with food): approximately 4 days | Post-dose maximum concentration, steady-state (Day 9) plasma (Cohort D (n = 6), 100 mg BID): 5560 (22.8%) ng/mL | Pre-dose concentration, steady-state (Day 9) plasma (Cohort D (n = 6), 100 mg BID): 4694 (25.5%) ng/mL | Accumulation Ratio AUC tau [2]: 3.74 | Accumulation Ratio Cmax [2]: 3.53 | Accumulation_Index [2]: 3.11 | Cavg, ss [2]: 3420 ng/mL | Cmin, SS [2]: 2758 ng/mL | AUCtau, Day 1 [3]: 12360 ng·h/mL and 8025 ng·h/mL and 9501 ng·h/mL and 11570 ng·h/mL | Accumulation Ratio AUC tau [3]: 4.37 and 3.96 and 3.15* and 2.80 and 4.27 and 3.31 | Accumulation Ratio Cmax [3]: 4.32 and 3.46 and 2.51* and 2.80 and 4.06 and 2.99 | Accumulation_Index [3]: 3.82 and 3.89 and 2.79* and 2.21 and 3.00 and 2.61 | Cavg, ss [3]: 3846 ng/mL and 4079 ng/mL and 2108* ng/mL and 2215 ng/mL and 3774 ng/mL and 3188 ng/mL | Cmax, Day 1 [3]: 1360 ng/mL and 958 ng/mL and 981 ng/mL and 1100 ng/mL and 1250 ng/mL | Cmax, SS [3]: 4710 ng/mL and 2400* ng/mL and 2750 ng/mL and 4470 ng/mL and 3740 ng/mL | Cmin, SS [3]: 3050 ng/mL and 3510 ng/mL and 1450* ng/mL and 1740 ng/mL and 2880 ng/mL and 2610 ng/mL | t1/2, λz [3]: 27.41 hr and 28.02 hr and 18.78* hr and 13.84 hr and 20.55 hr and 17.21 hr | AUC_TAU [3]: 48950 hr*ng/mL and 25290* hr*ng/mL and 26580 hr*ng/mL and 45290 hr*ng/mL and 38250 hr*ng/mL | Accumulation Ratio AUC tau [4]: 4.09 | Accumulation Ratio Cmax [4]: 3.57 | Accumulation_Index [4]: 3.55 | Cavg, ss [4]: 2336 ng/mL | Cmin, SS [4]: 1989 ng/mL | AUCtau, Day 1 [5]: 5050 ng·h/mL and 6754 ng·h/mL and 8138 ng·h/mL and 8855 ng·h/mL and 7249 ng·h/mL and 6347 ng·h/mL and 8620 ng·h/mL | Accumulation Ratio AUC tau [5]: 4.00 and 6.37 and 5.22 and 3.26 and 4.07 and 3.30 and 3.63 and 2.88 | Accumulation Ratio Cmax [5]: 3.16 and 5.33 and 4.78 and 3.08 and 4.02 and 2.64 and 3.05 and 2.51 | Accumulation_Index [5]: 3.63 and 5.03 and 4.46 and 2.93 and 3.51 and 2.42 and 3.20 (2×) and 4.23* | Cavg, ss [5]: 2478 ng/mL and 2681 ng/mL and 2940 ng/mL and 2213 ng/mL and 3002 ng/mL and 1991 ng/mL and 1919 ng/mL and 2070 ng/mL and 1725* ng/mL | Cmax, Day 1 [5]: 548 ng/mL and 674 ng/mL and 830 ng/mL and 891 ng/mL and 901 ng/mL and 696 ng/mL and 974 ng/mL | Cmax, SS [5]: 2920 ng/mL and 3220 ng/mL and 2560 ng/mL and 3580 ng/mL and 2380 ng/mL and 2120 ng/mL and 2440 ng/mL and 2060* ng/mL | Cmin, SS [5]: 1900 ng/mL and 2380 ng/mL and 2640 ng/mL and 1810 ng/mL and 2370 ng/mL and 1440 ng/mL and 1720 ng/mL and 1650 ng/mL and 1320* ng/mL | t1/2, λz [5]: 25.81 hr and 37.48 hr and 32.77 hr and 19.93 hr and 24.77 hr and 15.57 hr and 22.23 hr and 22.21 hr and 30.87* hr | AUC_TAU [5]: 32170 hr*ng/mL and 35280 hr*ng/mL and 26560 hr*ng/mL and 36030 hr*ng/mL and 23890 hr*ng/mL and 23030 hr*ng/mL and 24840 hr*ng/mL and 20700* hr*ng/mL | Accumulation Ratio AUC tau [6]: 3.99 | Accumulation Ratio Cmax [6]: 3.28 | Accumulation_Index [6]: 3.18 | Cavg, ss [6]: 3357 ng/mL | Cmin, SS [6]: 2812 ng/mL | AUCtau, Day 1 [7]: 13270 ng·h/mL and 8280 ng·h/mL and 10790 ng·h/mL and 9731 ng·h/mL and 6976 ng·h/mL and 9166 ng·h/mL and 14840 ng·h/mL and 11840 ng·h/mL | Accumulation Ratio AUC tau [7]: 2.44 and 1.90 and 3.48 and 4.61 and 7.62 and 3.88 and 2.59 and 4.85 and 4.53 | Accumulation Ratio Cmax [7]: 2.17 and 1.80 and 3.20 and 4.06 and 4.80 and 2.80 and 2.38 and 4.63 and 3.68 | Accumulation_Index [7]: 2.18 and 2.39 and 2.99 and 3.31 and 5.51 and 2.43 and 2.20 and 4.17 and 3.42 | Cavg, ss [7]: 2695 ng/mL and 1308 ng/mL and 3126 ng/mL and 3738 ng/mL and 4432 ng/mL and 2963 ng/mL and 3206 ng/mL and 4267 ng/mL and 4474 ng/mL
